From PMC7730235, “Discovery of a Novel Class of Covalent Dual Inhibitors Targeting the Protein Kinases BMX and BTK” (International Journal of Molecular Sciences, 2020)
pIC50: −log10 of the molar value.

Key:
[1] = target: T1, JAK3 (Homo sapiens, UniProt P52333); assay: JAK3 ELISA assay; assay type: biochemical; details: Determined in a JAK3 ELISA assay
T1 construct: purchased Reaction Biology Corporation
T1 sequence (P52333 1-1124): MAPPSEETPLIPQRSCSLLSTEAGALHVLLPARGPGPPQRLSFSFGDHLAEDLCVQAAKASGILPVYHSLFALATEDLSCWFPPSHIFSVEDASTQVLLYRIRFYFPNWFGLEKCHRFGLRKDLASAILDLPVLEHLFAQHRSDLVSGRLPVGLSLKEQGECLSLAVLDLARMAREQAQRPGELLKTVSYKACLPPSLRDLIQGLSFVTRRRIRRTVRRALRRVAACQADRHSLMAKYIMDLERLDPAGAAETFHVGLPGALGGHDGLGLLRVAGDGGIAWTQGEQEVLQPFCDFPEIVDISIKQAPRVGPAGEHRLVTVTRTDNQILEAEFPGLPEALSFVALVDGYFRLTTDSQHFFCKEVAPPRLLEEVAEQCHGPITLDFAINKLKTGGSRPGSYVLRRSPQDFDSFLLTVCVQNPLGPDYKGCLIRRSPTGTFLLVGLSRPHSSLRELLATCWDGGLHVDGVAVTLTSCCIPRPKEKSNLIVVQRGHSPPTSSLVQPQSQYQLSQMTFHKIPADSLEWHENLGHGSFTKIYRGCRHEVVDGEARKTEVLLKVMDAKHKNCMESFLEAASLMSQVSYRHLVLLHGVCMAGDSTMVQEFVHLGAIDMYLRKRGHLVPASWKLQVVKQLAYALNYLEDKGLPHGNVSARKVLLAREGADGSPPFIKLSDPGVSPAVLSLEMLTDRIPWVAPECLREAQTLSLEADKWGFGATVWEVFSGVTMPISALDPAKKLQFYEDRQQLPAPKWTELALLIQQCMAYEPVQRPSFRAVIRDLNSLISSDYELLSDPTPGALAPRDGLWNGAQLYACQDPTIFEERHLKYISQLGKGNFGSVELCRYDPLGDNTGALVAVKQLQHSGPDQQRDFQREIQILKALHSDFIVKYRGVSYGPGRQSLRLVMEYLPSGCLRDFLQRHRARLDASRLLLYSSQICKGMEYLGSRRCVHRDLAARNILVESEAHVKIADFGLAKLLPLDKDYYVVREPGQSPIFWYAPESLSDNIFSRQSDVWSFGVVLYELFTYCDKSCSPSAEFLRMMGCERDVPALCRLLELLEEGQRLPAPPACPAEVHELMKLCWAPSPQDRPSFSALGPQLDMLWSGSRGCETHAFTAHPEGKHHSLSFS

[2] = tested on: kinases harboring an αD-1 cysteine; assay: Profiling at 200 nM against kinases with an αD-1 cysteine; assay type: biochemical; details: 200 nM compound
Method: If not mentioned differently, in vitro profiling of compounds was performed at Reaction Biology Corporation using the HotSpot™ assay platform.

[3] = tested on: glutathione (GSH); assay: Glutathione reactivity / stability against GSH; assay type: physicochemical; details: glutathione (GSH) in PBS buffer, pH 7.4, 5 mM GSH, read-out: half-life (t1/2) against glutathione (converted)
Method: A total of 5 µL of a 10 mM compound stock solution in DMSO were added to 5 µL of a 4 mM Indoprofen solution in PBS as internal standard. The mixture was diluted with PBS buffer to a total volume of 1 mL of component A. Additionally, a freshly prepared solution of 10 mM GSH in PBS buffer was used as component B. A total of 250 µL of each component was mixed and immediately subjected to HPLC analysis for t^0 measurement. The probes were stored at 40 °C in between the respective injections. t1/2 was determined by plotting natural logarithm of AUC/AUC0 against time.

pIC50 [1]	half-life at 25 µM [3] [h]	Structure (SMILES)	activity at 200 nM on kinases harboring an αD-1 cysteine [2]
< 5.00	–	C=CC(=O)Nc1cccc(-c2c[nH]c3ncc(C(=O)NC4CCCC4)cc23)c1 [Compound 11a, 3-(3-acrylamidophenyl)-N-cyclopentyl-1H-pyrrolo[2,3-b]pyridine-5-carboxamide]	did not show substantial activity
–	9.98	C=CC(=O)Nc1cccc(-c2c[nH]c3ncc(NC(=O)c4cccs4)cc23)c1 [Compound 12c, N-(3-(3-acrylamidophenyl)-1H-pyrrolo[2,3-b]pyridin-5-yl)thiophene-2-carboxamide]	–
